This is an account of results in patent publication US11332492B2, “CD73 inhibitors and therapeutic uses thereof” (Jiangsu Hengrui Medicine Co., Ltd., priority 2018, dated 2022).

recombinant human 5′-nucleotidase (CD73), sequence (P21589 27-574): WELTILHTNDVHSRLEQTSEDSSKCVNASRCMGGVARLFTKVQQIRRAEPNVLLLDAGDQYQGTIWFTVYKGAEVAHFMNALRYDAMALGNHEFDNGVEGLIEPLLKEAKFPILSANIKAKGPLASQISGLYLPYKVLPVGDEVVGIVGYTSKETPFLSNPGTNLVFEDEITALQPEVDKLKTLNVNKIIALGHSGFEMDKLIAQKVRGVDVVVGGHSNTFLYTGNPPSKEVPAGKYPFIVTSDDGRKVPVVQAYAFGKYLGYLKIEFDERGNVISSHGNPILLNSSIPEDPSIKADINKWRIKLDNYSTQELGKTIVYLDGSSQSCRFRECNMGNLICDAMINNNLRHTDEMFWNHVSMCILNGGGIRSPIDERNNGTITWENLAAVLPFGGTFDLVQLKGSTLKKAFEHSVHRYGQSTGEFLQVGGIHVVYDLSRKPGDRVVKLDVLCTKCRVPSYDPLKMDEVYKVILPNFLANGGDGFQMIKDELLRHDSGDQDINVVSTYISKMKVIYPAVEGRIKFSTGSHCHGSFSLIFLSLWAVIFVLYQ

The first assay concerns human peripheral blood mononuclear cells (PBMCs). Description: IFNγ cytokine production in human PBMCs with AMP and CD3/CD28 antibody beads (HTRF). To be noted: compound 10 μM, 50 μM AMP, 72 hours. In kind it is cell-based. On the procedure:
Test Example 2 Determination of Compound of the Present Invention Modulates Cellular Immune Function by IFNγ Cytokine Production
Lymphocyte medium and TexMACS medium were incubated in a water bath at 37° C. 10 mL of incubated lymphocyte medium was added to a 50 mL conical tube. The cells were quickly thawed in a 37° C. water bath and transferred to a 50 ml tube and the tube gently swirled. The cell suspension was centrifuged at 1100 rpm for 10 minutes at room temperature. The supernatant was removed, and the cell pellet gently resuspended in 10 mL of TexMACS medium. The cells were counted to make 5×10^5 cells/ml. 100 μL of 5×10^5 cells/ml of PBMCs seeds, inserted into a 96-well plate (cell density of 50,000 cells/well), and the most outer edge wells of the 96-well plate were filled with water and were not used for the test. […] Read the values of 665 nm and 620 nm on a PHERAstar FSX Multilabel Reader.
Calculated ratio=(signal at 665 nm/signal at 620 nm)×10^4, which reflected the “raw signal”. […] The concentration of IFNγ cytokine of each sample corresponding to the standard curve was calculated. […]
The production of IFNγ cytokines by the compounds of the present invention was measured by the above test. […]
Background: In TR-FRET formats the signal depends on donor and acceptor labels being close together.
On to `O=P(O)(O)COC[C@H]1O[C@@H](n2ncc3c(N4CC5(CCCCC5)C4)nc(Cl)nc32)[C@H](O)[C@@H]1O` [Example 1, ((((2R,3S,4R,5R)-5-(6-chloro-4-(2-azaspiro[3.5]nonan-2-yl)-1H-pyrazolo[3,4-d]pyrimidin-1-yl)-3,4-dihydroxytetrahydrofuran-2-yl)methoxy)methyl)phosphonic acid], for which the “Response rate of IFNγ cytokines by a compound (fold) as compared to vehicle control (DMSO)” value was determined as 4.1 folds. In the case of `O=P(O)(O)COC[C@H]1O[C@@H](n2ncc3c(N4CC5(CCc6ccccc65)C4)nc(Cl)nc32)[C@H](O)[C@@H]1O` [Example 2, ((((2R,3S,4R,5R)-5-(6-chloro-4-(2′,3′-dihydrospiro[azetidine-3,1′-inden]-1-yl)-1H-pyrazolo[3,4-d]pyrimidin-1-yl)-3,4-dihydroxytetrahydrofuran-2-yl)methoxy)methyl)phosphonic acid], the “Response rate of IFNγ cytokines by a compound (fold) as compared to vehicle control (DMSO)” value stood at 4.3 folds.

Another assay concerns the target recombinant human 5′-nucleotidase (CD73) (Homo sapiens (Human), UniProt P21589). Description: Inhibition of CD73 enzyme activity in vitro (Malachite Green phosphate detection, CMP substrate). To be noted: 0.34 nM recombinant human CD73, 2 h pre-incubation at 37° C., 45 μM CMP; read-out: IC50 values of biochemical inhibition of CD73 enzymatic activity. On the procedure:
Test Example 1, Test of the Compounds of the Present Invention for their Inhibition on CD73 Enzyme Activity In Vitro
CD73 enzyme, an ecto-5′-Nucleotidase, converts extracellular nucleoside-5′-monophosphates to nucleosides, with AMP or CMP as the preferred substrate. In this assay, recombinant human CD73 expressed from a Chinese hamster ovary cell line (R&D Systems) was used to convert cytidine monophosphate (CMP) to cytidine and phosphate. Before adding substrate, CD73 enzyme was pre-incubated with compounds for 2 hours. The amount of phosphate was then measured by Malachite Green Phosphate Detection Kit. The experimental method is summarized as follows:
Compounds are first dissolved in DMSO to 10 mM as a stock solution. When determining the IC50 of the compound, prepare 3-fold serial dilutions with a highest concentration of 125 μM for a total of 12 concentration points and ensure each dilution containing equal amount of DMSO. In each well of 384-well plate, 0.34 nM of recombinant human 5′-nucleotidase (CD73) was pre-incubated at 37° C. for 2 hours with the compounds tested in assay buffer containing 20 mM HEPES buffer (pH 7.4), 137 mM NaCl, 0.001% Tween 20. The final reaction volume of the reaction in each well was 12 μL. The highest concentration of compound was 125 μM and the DMSO concentration was 1.25%. After pre-incubation, 3 μL of CMP dissolved in assay buffer was added to each reaction. The final CMP concentration was 45 μM. The reaction was incubated at 37° C. for 15 minutes. Then 3 μL of Malachite Green Reagent A was added to each reaction. Spin the plate briefly in centrifuge for 30 seconds. After incubation for additional 10 minutes at room temperature, 3 μL of malachite green Reagent B was added to each reaction. Spin the plate briefly in centrifuge for 30 seconds. After 20 minutes of incubation at room temperature, the signal was read on a TECAN reader at OD620. The reaction containing CD73 enzyme, substrate CMP and DMSO (no compound) is used as an assay positive control while the reaction containing substrate CMP and DMSO without the CD73 enzyme as an assay negative control. IC50 values were calculated by plotting the logarithm of the compound concentration and the percent inhibition using the appropriate program in GraphPad Prism.
The biochemical inhibitions of CD73 enzymatic activities by the compounds of the present invention were determined by the assay described above, and the resulting IC50 values are shown in Table 1.
By IC50 is commonly meant the point on the concentration scale where inhibition reaches its midpoint. For the compound `O=P(O)(COC[C@H]1O[C@@H](n2ncc3c(N4CC5(CCc6ccccc65)C4)nc(Cl)nc32)[C@H](O)[C@@H]1O)Oc1ccccc1` [Example 11, phenyl hydrogen ((((2R,3S,4R,5R)-5-(6-chloro-4-(2′,3′-dihydrospiro[azetidine-3,1′-inden]-1-yl)-1H-pyrazolo[3,4-d]pyrimidin-1-yl)-3,4-dihydroxytetrahydrofuran-2-yl)methoxy)methyl)phosphonate], the IC50 amounted to 0.9 nM. On the same count and under the same terms, the result for `CC(C)OC(=O)OCOP(=O)(COC[C@H]1O[C@@H](n2ncc3c(N4CC5(CCc6ccccc65)C4)nc(Cl)nc32)[C@H](O)[C@@H]1O)OCOC(=O)OC(C)C` [Example 4, ((((((2R,3S,4R,5R)-5-(6-chloro-4-(2′,3′-dihydrospiro[azetidine-3,1′-inden]-1-yl)-1H-pyrazolo[3,4-d]pyrimidin-1-yl)-3,4-dihydroxytetrahydrofuran-2-yl)methoxy)methyl)phosphoryl)bis(oxy))bis(methylene) diisopropyl decarbonate] reads 710 nM.

For the compound `COc1ccc2c(c1)CCC21CN(c2nc(Cl)nc3c2cnn3[C@@H]2O[C@H](COCP(=O)(O)O)[C@@H](O)[C@H]2O)C1` [Example 7, ((((2R,3S,4R,5R)-5-(6-chloro-4-(5′-methoxy-2′,3′-dihydrospiro[azetidine-3,1′-inden]-1-yl)-1H-pyrazolo[3,4-d]pyrimidin-1-yl)-3,4-dihydroxytetrahydrofuran-2-yl)methoxy)methyl)phosphonic acid], the IC50 was 0.13 nM. On the same count and under the same terms, for `O=P(O)(O)COC[C@H]1O[C@@H](n2ncc3c(N4CC5(C4)OCc4cc(Cl)ccc45)nc(Cl)nc32)[C@H](O)[C@@H]1O` [Example 5, ((((2R,3S,4R,5R)-5-(6-chloro-4-(5′-chloro-3′H-spiro[azetidine-3,1′-isobenzofuran]-1-yl)-1H-pyrazolo[3,4-d]pyrimidin-1-yl)-3,4-dihydroxytetrahydrofuran-2-yl)methoxy)methyl)phosphonic acid] the value was 0.074 nM; for `CC(C)OC(=O)OCOP(=O)(O)COC[C@H]1O[C@@H](n2ncc3c(N4CC5(CCc6ccccc65)C4)nc(Cl)nc32)[C@H](O)[C@@H]1O` [Example 3, ((((((2R,3S,4R,5R)-5-(6-chloro-4-(2′,3′-dihydrospiro[azetidine-3,1′-inden]-1-yl)-1H-pyrazolo[3,4-d]pyrimidin-1-yl)-3,4-dihydroxytetrahydrofuran-2-yl)methoxy)methyl)(hydroxy)phosphoryl)oxy)methyl isopropyl carbonate], 2.1 nM; for `O=P(COC[C@H]1O[C@@H](n2ncc3c(N4CC5(CCc6ccccc65)C4)nc(Cl)nc32)[C@H](O)[C@@H]1O)(Oc1ccccc1)Oc1ccccc1` [Example 10, diphenyl((((2R,3S,4R,5R)-5-(6-chloro-4-(2′,3′-dihydrospiro[azetidine-3,1′-inden]-1-yl)-1H-pyrazolo[3,4-d]pyrimidin-1-yl)-3,4-dihydroxytetrahydrofuran-2-yl)methoxy)methyl)phosphonate], 7.6 nM. In the case of `O=P(O)(O)COC[C@H]1O[C@@H](n2ncc3c(N4CC5(CCCCC5)C4)nc(Cl)nc32)[C@H](O)[C@@H]1O` [Example 1, ((((2R,3S,4R,5R)-5-(6-chloro-4-(2-azaspiro[3.5]nonan-2-yl)-1H-pyrazolo[3,4-d]pyrimidin-1-yl)-3,4-dihydroxytetrahydrofuran-2-yl)methoxy)methyl)phosphonic acid], the IC50 is 0.11 nM. On the same count and under the same terms, for `O=P(O)(O)COC[C@H]1O[C@@H](n2ncc3c(N4CC5(CCc6ccccc65)C4)nc(Cl)nc32)[C@H](O)[C@@H]1O` [Example 2, ((((2R,3S,4R,5R)-5-(6-chloro-4-(2′,3′-dihydrospiro[azetidine-3,1′-inden]-1-yl)-1H-pyrazolo[3,4-d]pyrimidin-1-yl)-3,4-dihydroxytetrahydrofuran-2-yl)methoxy)methyl)phosphonic acid] the value was 0.013 nM; for `CC(OC(=O)C(C)(C)C)OP(=O)(O)COC[C@H]1O[C@@H](n2ncc3c(N4CC5(CCc6ccccc65)C4)nc(Cl)nc32)[C@H](O)[C@@H]1O` (stereo partly drawn) [Example 9, 1-((((((2R,3S,4R,5R)-5-(6-chloro-4-(2′,3′-dihydrospiro[azetidine-3,1′-inden]-1-yl)-1H-pyrazolo[3,4-d]pyrimidin-1-yl)-3,4-dihydroxytetrahydrofuran-2-yl)methoxy)methyl)(hydroxy)phosphoryl)oxy)ethyl pivalate], 8.5 nM; for `O=P(O)(O)Cc1cccc(OC[C@H]2O[C@@H](n3ncc4c(N5CC6(CCCCC6)C5)nc(Cl)nc43)[C@H](O)[C@@H]2O)c1` [Example 12, (3-(((2R,3S,4R,5R)-5-(6-chloro-4-(2-azaspiro[3.5]nonan-2-yl)-1H-pyrazolo[3,4-d]pyrimidin-1-yl)-3,4-dihydroxytetrahydrofuran-2-yl)methoxy)benzyl)phosphonic acid], 300 nM. For `O=P(O)(O)COC[C@H]1O[C@@H](n2ncc3c(N4CC5(CCc6ccc(F)cc65)C4)nc(Cl)nc32)[C@H](O)[C@@H]1O` [Example 6, ((((2R,3S,4R,5R)-5-(6-chloro-4-(6′-fluoro-2′,3′-dihydrospiro[azetidine-3,1′-inden]-1-yl)-1H-pyrazolo[3,4-d]pyrimidin-1-yl)-3,4-dihydroxytetrahydrofuran-2-yl)methoxy)methyl)phosphonic acid], the IC50 stood at 0.25 nM.
